Laboratory results: patent publication US9708314B2, “Heterocyclic amide compound” (NISSAN CHEMICAL INDUSTRIES, LTD., priority 2013, dated 2017)

Tests used:
Format in all cases: in vivo
[1] = tested on: Echinochloa oryzacola Vasing.; assay: Test Example 2: herbicidal activity, application during weed generation in submerged conditions; conditions: Eighteenth Table; application herbicide amount 320 g/ha
Procedure, shortened: (§1)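 Alluvial soil in Wagner pots flooded to 4 cm water depth; seeds sown mixed, grown in greenhouse at 25–30 °C. At one- to two-leaf stage, emulsion diluted with water to the set rate (g/ha) was applied to the water surface. Effect scored 0–5 by herbicidal ratio three weeks later.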

[2] = tested on: Monochoria vaginalis; assay: as above; conditions: Eighteenth Table; application herbicide amount 320 g/ha
Procedure, shortened: as §1

[3] = tested on: Scirpus juncoides; assay: as above; conditions: Eighteenth Table; application herbicide amount 320 g/ha
Procedure, shortened: as §1

[4] = tested on: Abutilon theophrasti; assay: Test Example 4: herbicidal effect by application to foliage (diluvial soil, plastic box); conditions: application to foliage, 320 g/ha
Procedure, shortened: (§2)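 Scores run from 0 (herbicidal ratio ≤5%) to 5 (≥90%, almost fully withered) and were assessed three weeks after foliar spraying. Seedlings had been raised for 14 days at 25-30° C in sterilized diluvial soil before treatment, with the emulsion diluted in water to the stated g/ha dose.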

[5] = tested on: Alopecurus myosuroides; assay: as above; conditions: application to foliage, 320 g/ha
Procedure, shortened: as §2

[6] = tested on: Amaranthus retroflexus; assay: as above; conditions: application to foliage, 320 g/ha
Procedure, shortened: as §2

[7] = tested on: Apera spica-venti.; assay: as above; conditions: application to foliage, 320 g/ha
Procedure, shortened: as §2

[8] = tested on: Avena fatua; assay: as above; conditions: application to foliage, 320 g/ha
Procedure, shortened: as §2

[9] = tested on: Chenopodium album; assay: as above; conditions: application to foliage, 320 g/ha
Procedure, shortened: as §2

[10] = tested on: Digitaria ciliaris; assay: as above; conditions: application to foliage, 320 g/ha
Procedure, shortened: as §2

[11] = tested on: Echinochloa crus-galli var. crus-galli; assay: as above; conditions: application to foliage, 320 g/ha
Procedure, shortened: as §2

[12] = tested on: Galium spurium; assay: as above; conditions: application to foliage, 320 g/ha
Procedure, shortened: as §2

[13] = tested on: Lolium multiflorum Lam.; assay: as above; conditions: application to foliage, 320 g/ha
Procedure, shortened: as §2

[14] = tested on: Setaria viridis; assay: as above; conditions: application to foliage, 320 g/ha
Procedure, shortened: as §2

[15] = tested on: Stellaria media; assay: as above; conditions: application to foliage, 320 g/ha
Procedure, shortened: as §2

[16] = tested on: Veronica persica; assay: as above; conditions: application to foliage, 320 g/ha
Procedure, shortened: as §2

[17] = tested on: Beta vulgaris ssp. vulgaris; assay: Test Example 4: effect on crop by application to foliage (diluvial soil, plastic box); conditions: application to foliage, 320 g/ha
Procedure, shortened: as §2

[18] = tested on: Brassica campestris L.; assay: as above; conditions: application to foliage, 320 g/ha
Procedure, shortened: as §2

[19] = tested on: Glycine max; assay: as above; conditions: application to foliage, 320 g/ha
Procedure, shortened: as §2

[20] = tested on: Triticum aestivum; assay: as above; conditions: application to foliage, 320 g/ha
Procedure, shortened: as §2

[21] = tested on: directly sowed Oryza sativa; assay: as above; conditions: application to foliage, 320 g/ha
Procedure, shortened: as §2

Row | SMILES | A (Echinochloa oryzicola Vasing.) herbicidal ratio grade [1] | C (Monochoria vaginalis) herbicidal ratio grade [2] | B (Scirpus juncoides) herbicidal ratio grade [3] | herbicidal effect, M (Abutilon theophrasti) [4] | herbicidal effect, J (Alopecurus myosuroides) [5] | herbicidal effect, N (Amaranthus retroflexus) [6] | herbicidal effect, L (Apera spica-venti.) [7] | herbicidal effect, I (Avena fatua) [8] | herbicidal effect, O (Chenopodium album) [9] | herbicidal effect, F (Digitaria ciliaris) [10] | herbicidal effect, H (Echinochloa crus-galli var. crus-galli) [11] | herbicidal effect, Q (Galium spurium) [12] | herbicidal effect, K (Lolium multiflorum Lam.) [13] | herbicidal effect, G (Setaria viridis) [14] | herbicidal effect, P (Stellaria media) [15] | herbicidal effect, R (Veronica persica) [16] | effect on crop, f (Beta vulgaris ssp. vulgaris) [17] | effect on crop, g (Brassica campestris L.) [18] | effect on crop, c (Glycine max) [19] | effect on crop, e (Triticum aestivum) [20] | other results
1 | Cn1nnnc1NC(=O)c1ccc(C(F)(F)F)n2c(SCC3CC3)nnc12 [2-084] | 4 (Herbicidal ratio of 70% or more and less than 90%) | 3 (Herbicidal ratio of 40% or more and less than 70%) | 4 (Herbicidal ratio of 70% or more and less than 90%) | 5 (Herbicidal ratio of 90% or more (almost completely withered)) | 3 (Herbicidal ratio of 40% or more and less than 70%) | 5 (Herbicidal ratio of 90% or more (almost completely withered)) | 4 (Herbicidal ratio of 70% or more and less than 90%) | 4 (Herbicidal ratio of 70% or more and less than 90%) | 5 (Herbicidal ratio of 90% or more (almost completely withered)) | 5 (Herbicidal ratio of 90% or more (almost completely withered)) | 5 (Herbicidal ratio of 90% or more (almost completely withered)) | 4 (Herbicidal ratio of 70% or more and less than 90%) | 3 (Herbicidal ratio of 40% or more and less than 70%) | 5 (Herbicidal ratio of 90% or more (almost completely withered)) | 5 (Herbicidal ratio of 90% or more (almost completely withered)) | 3 (Herbicidal ratio of 40% or more and less than 70%) | 5 (Herbicidal ratio of 90% or more (almost completely withered)) | 3 (Herbicidal ratio of 40% or more and less than 70%) | 1 (Herbicidal ratio of 5% or more and less than 20%) | 3 (Herbicidal ratio of 40% or more and less than 70%) | effect on crop, d (directly sowed Oryza sativa) [21]: 3 (Herbicidal ratio of 40% or more and less than 70%)
2 | Cn1nnnc1NC(=O)c1ccc(C(F)(F)F)n2c(SCC3CCCO3)nnc12 (stereo not drawn) [2-085] | 4 (Herbicidal ratio of 70% or more and less than 90%) | 3 (Herbicidal ratio of 40% or more and less than 70%) | 4 (Herbicidal ratio of 70% or more and less than 90%) | 5 (Herbicidal ratio of 90% or more (almost completely withered)) | 3 (Herbicidal ratio of 40% or more and less than 70%) | 5 (Herbicidal ratio of 90% or more (almost completely withered)) | 4 (Herbicidal ratio of 70% or more and less than 90%) | 4 (Herbicidal ratio of 70% or more and less than 90%) | 5 (Herbicidal ratio of 90% or more (almost completely withered)) | 5 (Herbicidal ratio of 90% or more (almost completely withered)) | 5 (Herbicidal ratio of 90% or more (almost completely withered)) | 4 (Herbicidal ratio of 70% or more and less than 90%) | 3 (Herbicidal ratio of 40% or more and less than 70%) | 5 (Herbicidal ratio of 90% or more (almost completely withered)) | 5 (Herbicidal ratio of 90% or more (almost completely withered)) | 4 (Herbicidal ratio of 70% or more and less than 90%) | 5 (Herbicidal ratio of 90% or more (almost completely withered)) | 4 (Herbicidal ratio of 70% or more and less than 90%) | 2 (Herbicidal ratio of 20% or more and less than 40%) | 3 (Herbicidal ratio of 40% or more and less than 70%) | effect on crop, d (directly sowed Oryza sativa) [21]: 5 (Herbicidal ratio of 90% or more (almost completely withered))
3 | Cn1nnnc1NC(=O)c1ccc(C(F)(F)F)n2c(SCC#N)nnc12 [2-086] | 0 (Herbicidal ratio of 5% or less (almost no effect)) | 1 (Herbicidal ratio of 5% or more and less than 20%) | 2 (Herbicidal ratio of 20% or more and less than 40%) | 5 (Herbicidal ratio of 90% or more (almost completely withered)) | 1 (Herbicidal ratio of 5% or more and less than 20%) | 5 (Herbicidal ratio of 90% or more (almost completely withered)) | 4 (Herbicidal ratio of 70% or more and less than 90%) | 3 (Herbicidal ratio of 40% or more and less than 70%) | 5 (Herbicidal ratio of 90% or more (almost completely withered)) | 5 (Herbicidal ratio of 90% or more (almost completely withered)) | 5 (Herbicidal ratio of 90% or more (almost completely withered)) | 4 (Herbicidal ratio of 70% or more and less than 90%) | 2 (Herbicidal ratio of 20% or more and less than 40%) | 5 (Herbicidal ratio of 90% or more (almost completely withered)) | 4 (Herbicidal ratio of 70% or more and less than 90%) | 5 (Herbicidal ratio of 90% or more (almost completely withered)) | 5 (Herbicidal ratio of 90% or more (almost completely withered)) | 3 (Herbicidal ratio of 40% or more and less than 70%) | 0 (Herbicidal ratio of 5% or less (almost no effect)) | 2 (Herbicidal ratio of 20% or more and less than 40%) | effect on crop, d (directly sowed Oryza sativa) [21]: 4 (Herbicidal ratio of 70% or more and less than 90%)
4 | CCN(CC)c1nnc2c(C(=O)Nc3nnnn3C)ccc(C(F)(F)F)n12 [2-089] | 4 (Herbicidal ratio of 70% or more and less than 90%) | 5 (Herbicidal ratio of 90% or more (almost completely withered)) | 4 (Herbicidal ratio of 70% or more and less than 90%) | 4 (Herbicidal ratio of 70% or more and less than 90%) | 2 (Herbicidal ratio of 20% or more and less than 40%) | 4 (Herbicidal ratio of 70% or more and less than 90%) | 4 (Herbicidal ratio of 70% or more and less than 90%) | 1 (Herbicidal ratio of 5% or more and less than 20%) | 5 (Herbicidal ratio of 90% or more (almost completely withered)) | 4 (Herbicidal ratio of 70% or more and less than 90%) | 4 (Herbicidal ratio of 70% or more and less than 90%) | 3 (Herbicidal ratio of 40% or more and less than 70%) | 1 (Herbicidal ratio of 5% or more and less than 20%) | 4 (Herbicidal ratio of 70% or more and less than 90%) | 5 (Herbicidal ratio of 90% or more (almost completely withered)) | 5 (Herbicidal ratio of 90% or more (almost completely withered)) | 5 (Herbicidal ratio of 90% or more (almost completely withered)) | 4 (Herbicidal ratio of 70% or more and less than 90%) | 0 (Herbicidal ratio of 5% or less (almost no effect)) | 0 (Herbicidal ratio of 5% or less (almost no effect)) | effect on crop, d (directly sowed Oryza sativa) [21]: 4 (Herbicidal ratio of 70% or more and less than 90%)
